Test results published in patent US20090215893A1, “Parakeratosis inhibitor, pore-shrinking agent,or rough skin preventing/ameliorating agent, and external composition for skin” (Shiseido Company Ltd, priority 2005, published 2009).

How the values were obtained:
[1] = test system: back of a hairless mouse (HR-1), 10 mass % oleic acid applied; assay: Parakeratosis-inhibiting effect tests: oleic acid applied to hairless mouse back, macroscopic rough skin evaluation and parakeratosis value; assay type: in vivo; details: for Macroscopic evaluation (average of four animals): 100 μL after oleic acid, three days, rough skin score 0.0 (no redness) to 2.0 (control); for Parakeratosis value (average of four animals): tape-stripped stratum corneum, hematoxylin, range 1.0 to 3.0, higher = parakeratosis advanced, control 2.0; for parakeratosis value / parakeratosis-inhibiting effect / rough skin preventing effect, based on stratum corneum peeling and redness: summary of Table 1, concentrations as in Table 1
Experimental: Aqueous solutions (containing 30 mass % of ethanol) of primarily 3 mass % of an α-amino acid derivative or salt thereof were prepared as the evaluation sample. The pH was regulated by hydrochloric acid or sodium hydroxide so as to be 7.0 to 7.5. When sample solubility was low, the solution was prepared accordingly.
100 μL of 10 mass % oleic acid solution (solvent: ethanol) were applied to the back of a hairless mouse (HR-1; Hoshino Laboratory Animals). Then the sample solution (α-amino acid derivative, and the like) was applied 100 μL at a time. This procedure was continued for three days. […] The status of the skin was evaluated in 0.25-point intervals, with skin where the control (control aqueous solution) had been applied being 2.0 and skin where there was no redness being 0.0. At the same time, the stratum corneum at the back of the hairless mouse was peeled off with tape, the nuclei were stained by hematoxylin, and the degree of parakeratosis was observed and evaluated by a parakeratosis value within a range of 1.0 to 3.0 (in 0.25 increments).

[2] = test system: pores of the cheeks of healthy human males; assay: Human pore-shrinking effect (replica assessment of cheek pores); assay type: in vivo; details: for Replica assessment (average of n = 5): twice a day for one month, pore size rating 1-13, after application minus before application, control 0.3; for pore-shrinking effect: summary of Table 2, concentrations as in Table 2
Experimental: An experiment was conducted whereby a sample was applied twice a day for one month to the cheeks of healthy human males in groups of 5 men each. Aqueous solutions (containing 15 mass % of ethanol) of 3 mass % of the α-amino acid derivative or a salt thereof were prepared as the evaluation sample. The pH was regulated by hydrochloric acid or sodium hydroxide so as to be 7.0 to 7.5. When sample solubility was low, the solution was prepared accordingly. The control was an aqueous 15% ethanol solution. The sample aqueous solution and control aqueous solution were applied to one half of the face at a time.
A replica was collected before and after continuous application, and changes in the shape of the pores at the same site were observed using a three-dimensional laser scanning microscope. The size of the pores was macroscopically evaluated in 13 steps of 1 through 13 (with the pores becoming larger as the numbers became larger), the difference in the ratings before and after application (after application-before application) was calculated, and the efficacy of each sample was studied using this difference as the replica assessment.

[3] = test system: back of hairless mice (HR-1), 10 mass % oleic acid applied; assay: Inhibiting effect against rough skin induced by oleic acid application (transepidermal water loss); assay type: in vivo; parameters: ΔTEWL value: unit not given here; details: for ΔTEWL value: three days, average of four animals, rough skin worse as value increases, control 12.0; for ΔTEWL value compared with the control aqueous solution / rough skin preventing/ameliorating effect: summary of Table 3, concentrations as in Table 3
Experimental: In order to investigate the inhibiting effect of α-amino acid derivatives and salts thereof against rough skin induced by oleic acid application, the transepidermal water loss (TEWL value) before and after application was measured, the difference was compared with the control (control aqueous solution), and the effect was determined. Sample preparation and the application method were in accordance with Example 1. The TEWL was determined using the TM210 TEWA Meter (Courage+Khazaka Electronic GmBH).
100 μL of 10 mass % oleic acid (solvent: ethanol) was applied to the back of hairless mice (HR-1, four mice per group). Then a sample solution (α-amino acid derivatives, and the like) was applied 100 μL at a time. This procedure was continued for three days. The following day, the TEWL value of the back was determined and the values of the four animals were averaged. Rough skin became worse as the ΔTEWL value increased.

[4] = test system: cheek of a panel of 20 women; assay: Sensory irritation tests; assay type: in vivo, human; details: for Evaluation (sensory irritation, class of average rating): 1 mL on cheek, evaluated for ten minutes, 20 women; for sensory irritation: summary of Table 4, β-alanine at 3%
Experimental: 1 mL of a control aqueous solution and the sample aqueous solution prepared in Example 1 were applied using a cotton swab to the left or right cheek, respectively, of a panel of 20 women, the irritating sensation was evaluated every 30 seconds for ten minutes beginning immediately after application, and a final evaluation was reported. The evaluation of the irritating sensation was based on the following four steps of rating criteria, the average rating was calculated, and the average was classified by the following criteria.
3: Discontinued because of extremely strong irritation, such as stinging sensation, burning sensation, tickling sensation, itching, and the like.
2: Intolerable strong irritation, such as stinging sensation, burning sensation, tickling sensation, itching, and the like.
1: Tolerable with only slight stinging sensation, burning sensation, tickling sensation, itching, and the like.
0: Not particularly irritating.
A: average rating of less than 0.2
B: average rating of 0.2 to less than 1.0
C: average rating of 1.0 to less than 2.0
D: average rating of 2.0 or greater

Row | Structure (SMILES) | Macroscopic evaluation (average of four animals) ([1]; sample 3 mass %) | Parakeratosis value (average of four animals) ([1]; sample 3 mass %) | parakeratosis value / parakeratosis-inhibiting effect [1] | rough skin preventing effect, based on stratum corneum peeling and redness [1] | Replica assessment (average of n = 5) ([2]; sample 3 mass %) | pore-shrinking effect [2] | ΔTEWL value ([3]; sample 3 mass %) | ΔTEWL value compared with the control aqueous solution / rough skin preventing/ameliorating effect [3] | Evaluation (sensory irritation, class of average rating) ([4]; sample 3 mass %) | sensory irritation [4] | Macroscopic evaluation (average of four animals) ([1]; sample 1.5 mass %) | Parakeratosis value (average of four animals) ([1]; sample 1.5 mass %) | Replica assessment (average of n = 5) ([2]; sample 1.5 mass %) | ΔTEWL value ([3]; sample 1.5 mass %) | Evaluation (sensory irritation, class of average rating) ([4]; sample 1.5 mass %)
1 | CCNC(CO)C(=O)O (racemic) [N-ethyl-DL-serine] | 1.5 | 1.5 | reduced | seen | −1.3 | seen | 7.8 | significantly lower | A (average rating of less than 0.2) | no problems |  |  |  |  | 
2 | CNC(C)C(=O)O (racemic) [N-methyl-DL-alanine] | 1.4 | 1.4 | reduced | seen | −0.9 | seen | 8.1 | significantly lower | A (average rating of less than 0.2) | no problems |  |  |  |  | 
3 | CNC(CO)C(=O)O (racemic) [N-methyl-DL-serine] | 1.2 | 1.2 | reduced | seen | −0.7 | seen | 8.0 | significantly lower | A (average rating of less than 0.2) | no problems |  |  |  |  | 
4 | C[C@@H](NS(=O)(=O)c1ccccc1)C(=O)O [N-benzenesulfonyl-D-alanine] |  |  |  |  |  |  |  |  |  |  | 1.3 | 1.4 | −1.2 | 7.0 | A (average rating of less than 0.2)
5 | O=C(O)[C@@H](CO)NS(=O)(=O)c1ccccc1 [N-benzenesulfonyl-D-serine] | 1.3 | 1.2 | reduced | seen | −1.1 | seen | 6.7 | significantly lower | A (average rating of less than 0.2) | no problems |  |  |  |  | 
6 | C[C@H](NS(=O)(=O)c1ccccc1)C(=O)O [N-benzenesulfonyl-L-alanine] |  |  | reduced | seen |  | seen |  | significantly lower |  | no problems | 1.2 | 1.3 | −0.9 | 7.2 | A (average rating of less than 0.2)
7 | O=C(O)[C@H](CO)NS(=O)(=O)c1ccccc1 [N-benzenesulfonyl-L-serine] | 1.2 | 1.2 | reduced | seen | −1.2 | seen | 6.8 | significantly lower | A (average rating of less than 0.2) | no problems |  |  |  |  | 
8 | O=C(O)CNS(=O)(=O)c1ccccc1 [N-benzenesulfonyl-glycine] | 1.2 | 1.2 | reduced | seen | −1.3 | seen | 6.9 | significantly lower | A (average rating of less than 0.2) | no problems |  |  |  |  | 
9 | C[C@@H](NC(=O)OCc1ccccc1)C(=O)O [N-carbobenzoyloxy-D-alanine] | 1.2 | 1.1 | reduced | seen | −0.8 | seen | 7.1 | significantly lower | A (average rating of less than 0.2) | no problems |  |  |  |  | 
10 | O=C(N[C@H](CO)C(=O)O)OCc1ccccc1 [N-carbobenzoyloxy-D-serine] | 1.2 | 1.2 | reduced | seen | −1.3 | seen | 6.8 | significantly lower | A (average rating of less than 0.2) | no problems |  |  |  |  | 
